Laboratory results: paper PMC12677842, “Unveiling the Potential of a New β‐Cyclodextrin‐Suxibuzone Conjugate in Proteasome Regulation” (Chemmedchem, 2025)

Tests used:
[1] = biological target: T1, human 20S proteasome (h20S core particle); experiment: fluorogenic AMC peptide cleavage by purified h20S (activation; Ch-L EC50 […], T-L EC50 […]); type: biochemical
T1 construct: gene PSMB5

[2] = test system: T1, human 20S proteasome (h20S core particle); experiment: fluorogenic AMC peptide cleavage by h20S at […] (activation similar to suxibuzone); type: biochemical

EC50 [1] [µM] | Compound | fluorogenic AMC peptide cleavage by h20S at 5 and 10 uM (activation similar to s) [2]
4.4 ± 0.4 | CCCCC1(COC(=O)CCC(=O)O)C(=O)N(c2ccccc2)N(c2ccccc2)C1=O [SB, suxibuzone] | –
– | CCCCC1(COC(=O)CCC(=O)NCCO)C(=O)N(c2ccccc2)N(c2ccccc2)C1=O [SB-ETA] | both test compounds had activity similar to suxibuzone, with no statistically significant difference
